# pIC50: −log10 of the molar value.
# Tests used:
# KM mice [1] = test: Apomorphine induced clambering assay of mice; assay type: in vivo; conditions: for ED50: Mus musculus, read-out: apomorphine induced clambering ED50; for Scoring (value), apomorphine induced clambering: x ± s, n = 10
# Experimental: Apomorphine Induced Clambering Assay of Mice
# Healthy KM mice (male, with body weight of 18-22 g) were provided by Qinglongshan Animal Cultivation Center, Nanjing.
# Apomorphine provided by Sigma Company was dissolved in 0.9% NaCl (containing 0.1% vitamin C) before use, and was freshly formulated before use.
# Vitamin C, F20061113, was provided by Sinopharm Chemical Reagent Co. Ltd.
# Sodium chloride injection, H32026305, was provided by Xuzhou No. 5 Pharmaceutical Factory Co. Ltd.
# Instruments: self-made clambering cage, chronograph.
# Procedures: apomorphine induced clambering assay of mice
# After 5 min of adaptation, the behaviors of the mice at 10-11, 20-21, and 30-31 min after the injection of apomorphine were observed and scored. Scoring criteria: 4 paws on the floor was scored as 0; 2 forepaws on the cage was scored as 1; and 4 paws on the cage was scored as 2.
# 5HT2C receptor = 5HT2C receptor (Rattus norvegicus (Rat), UniProt P08909); test: 5HT2C receptor binding assay ([3H]-mesulergine)
# in vivo = conditions: both sexes, mouse, in vivo; po, mice, single intragastric administration; read-out: LD50
# Experimental: (§1) Limit Test of Sequential Assay
# (§2) KM mice (half male and half female) were randomly divided into several groups (with 2-5 mice in each group), which were respectively the 2000 mg/kg groups for each compound, and the solvent group. 0.2 ml/10 g were administered intragastrically. The death of the animals in 3 days were observed. (In the case 3 or more animals survived in 3 days without notable abnormity in their life states, the observation was continued until the assay was completed in 7 days. In the case 3 or more animals died in 3 days, the median lethal dose method was used to determine the LD50).
# (§3) Pre-Assay for the Median Lethal Dose Method
# (§4) 0.2 ml/10 g were administered intragastrically, and the death of the animals in 1-3 days were observed.
# 5HT1A receptor = 5HT1A receptor (Rattus norvegicus (Rat), UniProt P19327); test: 5HT1A receptor binding assay (3H-8-OH-DPAT)
# Experimental: Preparation of 5HT1A Membrane
# Incubation at 37° C. was conducted for 10 min, the weight of the tubes were adjusted using a balance after incubation. […] Centrifugation was conducted and repeated 3 times.
# Materials for the Receptor Binding Assay
# D2 receptor = D2 receptor (Rattus norvegicus (Rat), UniProt P61169); test: D2 receptor inhibition binding assay (3H-Spiperone)
# Experimental: Rats were sacrificed by cervical dislocation on ice. Cerebral cortex was rapidly taken, and 2 cerebral cortexes were combined into a centrifuge tube, to which 3 ml of buffer (0.05 M Tris-HCl buffer, containing NaCl 120 mM, KCl 5 mM, MgCl2 1 mM, CaCl2 1 mM) was added, homogenization was conducted for 3-4 s at level 4 for four times, and then 5 ml of buffer was then added. The weight of the homogenized tubes were adjusted using a balance, and centrifugation was conducted at 12000 r, 4° C. for 20 min. The supernatant was discarded, and 3 ml of B solution was added. Vortex mixer was used for blending, and then 5 ml of B solution was added. Centrifugation was conducted and repeated 3 times. After the centrifugations, the supernatant was discarded, and the pellets were stored at −80° C. for future use.
# Beckman LS-6500 Multi-function Liquid Scintillation Counter was used.
# (1) The prepared membrane was first applied with appropriate amount of homogenized liquid, and homogenizer was used for evenly dispersing. 15 tubes were mixed into a 100 ml container, and appropriate amount of homogenized liquid was added to give 50 ml of membrane suspension, which was reserved for future use.
# (2) 100 μL of membrane preparation and 100 μL of buffer were added into each reaction tube.
# (3) 100 μL of homogenized liquid was added into the total binding tube (TB), 100 μL of Butaclamol (final concentration 10^−5 M) was added into the non-specific binding tube (NB), and 100 μL of the test compound (final concentration 10^−5 M) was added into the specific binding tube (SB) for each compound.
# (5) Each of the reaction tubes was incubated at 37° C. for 20 min. After the reaction was completed, the bound ligands were rapidly filtered under reduced pressure, and the ice-chilled assay buffer was used for adequate washing. The filter was taken out and put into a 3 ml scintillation vial, and 2 ml of toluene scintillation solution was added and blended.
# (6) The scintillation vials were put into Liquid Scintillation Counter for counting. Inhibitory rate (I %)=(Total binding tube cpm−compound cpm)/(Total binding tube cpm−non-specific binding tube cpm)×100%
# Each assay for the compounds was conducted in duplicate.
# mice of Kunming breed = test: MK-801 induced high activity; assay type: in vivo; conditions: for ED50: Mus musculus; for ED50 / MK-801 induced high activity ED50: po, mice
# Experimental: Healthy mice of Kunming breed (with half male and half female, (20±2) g) were provided by Qinglongshan Animal Cultivation Center, Nanjing.
# Ascorbic acid was provided by Sinopharm Chemical Reagent Co. Ltd.
# Tween 80, with the concentration of 10%.
# Subsequently, the spontaneous activities of the mice of each group in 90 min were measured.
# 5HT2A receptor = 5HT2A receptor (Rattus norvegicus (Rat), UniProt P14842); test: 5HT2A receptor binding assay ([3H]-Ketanserin)
# Catalepsy assay = conditions: both, Kunming (KM), mouse, po
# Experimental: (§5) Healthy mice of Kunming breed (with half male and half female, (22±2) g) were provided by Qinglongshan Animal Cultivation Center, Nanjing.
# (§6) The durations for the mice to maintain the posture with the two forepaws on the bars were recorded, and 30 s of spasticity without moving was considered as the positive response. In the case the forepaws of the mice were not put down persistently, the observation was terminated at 60 s. The numbers of animals with positive response in each of the compound dosage groups were counted.
# D3 receptor = D3 receptor (Homo sapiens (Human), UniProt P35462); test: D3 receptor competitive binding assay ([3H]-Spiperone, HEK-293 cells)
# Experimental: After the cells were centrifuged at 1000 rpm for 5 min, the supernatant was discarded, and the cell pellet was collected and stored in a -20° C. fridge for reservation. It was re-suspended with Tris-Cl (pH 7.4) in the assay. […] Tris was divided into aliquots by […] Technology Inc. Procedures Competitive binding test for receptors: 20 μl of each of the test compounds and 20 μl of the radioactive ligand together with 160 μl of the receptor proteins were added into the reaction tubes, and the final concentrations of the test compound and the positive drug were all 10 μmol/L. After 50 min of incubation in 30° C. water bath, the tubes were immediately moved to ice bath to terminate the reactions. GF/C glass fiber filter papers were used for rapid sucking filtration on a Millipore cell sample collector, elution buffer (50 mM Tris-HCl, PH 7.4) was applied for 3 ml×3 times, and microwave was applied for 4-5 min for drying. The filter papers were moved into 0.5 ml centrifuge tubes, and 500 μl of lipid-soluble scintillation solution was added. The tubes were allowed to stand still for over 30 min in dark, and the intensities of radioactivity were measured by a counter.
# KM mice [2] = test: Catalepsy assay; conditions: mouse, in vivo
# Experimental: as §5, §6
# KM mice [3] = test: in vivo; conditions: po, mice, single intragastric administration
# Experimental: as §1, §2, §3, §4
# D2 receptor, sequence (P61169 whole entry): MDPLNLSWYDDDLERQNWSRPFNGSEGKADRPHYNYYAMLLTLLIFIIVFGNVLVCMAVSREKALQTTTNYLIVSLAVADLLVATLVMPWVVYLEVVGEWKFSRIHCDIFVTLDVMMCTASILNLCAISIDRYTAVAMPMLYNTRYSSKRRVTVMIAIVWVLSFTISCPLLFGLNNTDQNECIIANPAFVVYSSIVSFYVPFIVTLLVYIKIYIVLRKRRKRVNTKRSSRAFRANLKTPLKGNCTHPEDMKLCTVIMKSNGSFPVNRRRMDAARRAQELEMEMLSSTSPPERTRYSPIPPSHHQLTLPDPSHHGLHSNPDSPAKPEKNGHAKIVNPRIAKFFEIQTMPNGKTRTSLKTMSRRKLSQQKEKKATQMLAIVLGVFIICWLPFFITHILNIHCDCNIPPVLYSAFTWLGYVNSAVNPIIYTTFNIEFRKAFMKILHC
# D3 receptor, sequence (P35462 whole entry): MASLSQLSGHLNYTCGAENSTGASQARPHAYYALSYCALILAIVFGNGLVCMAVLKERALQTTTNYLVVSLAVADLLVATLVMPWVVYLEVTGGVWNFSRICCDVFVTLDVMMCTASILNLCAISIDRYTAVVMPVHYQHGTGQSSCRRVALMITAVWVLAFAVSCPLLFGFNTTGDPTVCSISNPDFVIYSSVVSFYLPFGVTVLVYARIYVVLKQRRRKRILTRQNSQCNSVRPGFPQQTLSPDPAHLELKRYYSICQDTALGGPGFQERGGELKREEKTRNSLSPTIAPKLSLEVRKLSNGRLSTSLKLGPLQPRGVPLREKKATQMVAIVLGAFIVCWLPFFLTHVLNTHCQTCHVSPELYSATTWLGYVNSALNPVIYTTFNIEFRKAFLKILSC
# 5HT2C receptor, sequence (P08909 33-460): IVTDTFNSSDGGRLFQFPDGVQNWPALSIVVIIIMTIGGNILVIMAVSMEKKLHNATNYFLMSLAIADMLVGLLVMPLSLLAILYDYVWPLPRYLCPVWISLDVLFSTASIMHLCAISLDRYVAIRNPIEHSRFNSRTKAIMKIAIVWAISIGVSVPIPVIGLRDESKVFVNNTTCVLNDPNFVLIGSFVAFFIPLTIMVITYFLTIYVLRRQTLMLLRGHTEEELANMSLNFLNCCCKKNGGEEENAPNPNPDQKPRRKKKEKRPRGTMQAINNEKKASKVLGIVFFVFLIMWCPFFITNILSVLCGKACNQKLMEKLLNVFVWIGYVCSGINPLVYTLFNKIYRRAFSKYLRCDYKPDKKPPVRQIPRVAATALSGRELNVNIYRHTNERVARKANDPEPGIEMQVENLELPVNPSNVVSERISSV
# 5HT1A receptor, sequence (P19327 whole entry): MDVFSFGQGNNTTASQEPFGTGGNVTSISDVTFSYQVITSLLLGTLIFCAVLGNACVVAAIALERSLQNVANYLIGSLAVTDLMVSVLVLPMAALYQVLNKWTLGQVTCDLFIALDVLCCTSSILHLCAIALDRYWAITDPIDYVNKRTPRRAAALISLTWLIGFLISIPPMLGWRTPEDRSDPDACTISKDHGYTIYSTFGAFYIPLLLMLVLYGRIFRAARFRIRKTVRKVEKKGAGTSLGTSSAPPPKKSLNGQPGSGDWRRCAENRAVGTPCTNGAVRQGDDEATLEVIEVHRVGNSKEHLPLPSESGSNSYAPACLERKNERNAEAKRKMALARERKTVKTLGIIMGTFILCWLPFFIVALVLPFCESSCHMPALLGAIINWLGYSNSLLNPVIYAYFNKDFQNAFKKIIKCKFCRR
# 5HT2A receptor, sequence (P14842 whole entry): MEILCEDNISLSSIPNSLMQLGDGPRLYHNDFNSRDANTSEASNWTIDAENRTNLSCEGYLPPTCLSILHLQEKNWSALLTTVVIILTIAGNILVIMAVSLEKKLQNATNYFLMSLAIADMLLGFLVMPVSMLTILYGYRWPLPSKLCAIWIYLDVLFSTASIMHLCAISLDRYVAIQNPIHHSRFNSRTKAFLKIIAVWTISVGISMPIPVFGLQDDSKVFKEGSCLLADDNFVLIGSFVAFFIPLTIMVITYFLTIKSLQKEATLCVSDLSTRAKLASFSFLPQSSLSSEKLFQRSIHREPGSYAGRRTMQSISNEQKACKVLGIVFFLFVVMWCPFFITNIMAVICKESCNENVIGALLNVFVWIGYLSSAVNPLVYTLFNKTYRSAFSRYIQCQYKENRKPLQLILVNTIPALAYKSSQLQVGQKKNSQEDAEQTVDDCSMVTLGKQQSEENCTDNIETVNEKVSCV
SMILES,"ED50 (KM mice [1]; po, mice) [mg/kg]","Scoring (value), apomorphine induced clambering (KM mice [1]; dosage 0.1 mg/kg)","Scoring (value), apomorphine induced clambering (KM mice [1]; dosage 0.3 mg/kg)","Scoring (value), apomorphine induced clambering (KM mice [1]; dosage 1 mg/kg)","Scoring (value), apomorphine induced clambering (KM mice [1]; dosage 3 mg/kg)",pIC50 (5HT2C receptor),LD50 (in vivo) [mg/kg],pIC50 (5HT1A receptor),pIC50 (D2 receptor),ED50 (mice of Kunming breed) [mg/kg],pIC50 (5HT2A receptor),ED50 (Catalepsy assay; in vivo) [mg/kg],pIC50 (D3 receptor),"Scoring (value), apomorphine induced clambering (KM mice [1]; dosage 10 mg/kg)",further results
"O=c1oc2cc(OCCCN3CCC(c4noc5cc(F)ccc45)CC3)ccc2c2c1CCC2 [Compound 5, 7-{3-[4-(3-(6-fluoro-benzisoxazole)-1-piperidyl)-n-propoxy]}-2,3-dihydro-1H-cyclopenteno[c]benzopyran-4-one]",0.68,4.60 ± 2.07,3.00 ± 1.94,0.90 ± 1.20,0.20 ± 0.63,5.94,> 2000,10.52,8.25,0.35,9.25,168,8.05,–,–
"COc1ccccc1N1CCN(CCCCOc2ccc3c4c(c(=O)oc3c2)CCC4)CC1 [Compound 7, 7-{4-[4-(2-methoxyphenyl)piperazin-1-yl]-butoxy}-2,3-dihydro-1H-cyclopenteno[c]benzopyran-4-one]",0.13,–,–,–,3.50 ± 1.96,5.89,> 2000,10.10,8.68,2.05,9.11,261,8.13,2.60 ± 1.58,"effect on apomorphine induced clambering symptoms (in words) (KM mice [1]; compared to the model group): effectively improve; Scoring (value), apomorphine induced clambering (KM mice [1]; dosage 30 mg/kg): 1.80 ± 1.40; Scoring (value), apomorphine induced clambering (KM mice [1]; dosage 100 mg/kg): 0.00 ± 0.00; affinity for 5HT2C (in words) (5HT2C receptor; in vitro assay): lower affinity; affinity for 5-HT1A receptor (in words) (5HT1A receptor; in vitro assay): relatively stronger affinities; affinity for D2 receptor (in words) (D2 receptor; in vitro assay): relatively stronger affinities; effect on MK-801 induced high activity (in words) (mice of Kunming breed; compared to the model group): significantly improve; affinity for 5-HT2A receptor (in words) (5HT2A receptor; in vitro assay): relatively stronger affinities; EPS at effective dosage (in words) (KM mice [2]): did not cause EPS at effective dosage; affinity for D3 receptor (in words) (D3 receptor; in vitro assay): relatively stronger affinities"
"O=c1oc2c(Cl)c(OCCCCN3CCN(c4nsc5ccccc45)CC3)ccc2c2c1CCC2 [Compound 14, 7-{4-[4-(3-(1,2-benzisothiazole)-1-piperazinyl)-n-butoxy]}-6-chloro-2,3-dihydro-1H-cyclopenteno[c]benzopyran-4-one]",0.25,5.30 ± 1.25,2.10 ± 1.85,1.25 ± 1.75,0.25 ± 0.71,5.83,> 2000,9.07,8.00,0.82,9.09,189,7.82,0.80 ± 1.40,–
"O=c1oc2c(Cl)c(OCCCCN3CCC(c4noc5cc(F)ccc45)CC3)ccc2c2c1CCC2 [Compound 15, 7-{4-[4-(3-(6-fluoro-benzisoxazole)-1-piperidyl)-butoxy]}-6-chloro-2,3-dihydro-1H-cyclopenteno[c]benzopyran-4-one]",0.56,4.75 ± 1.58,3.38 ± 0.92,3.00 ± 1.60,0.50 ± 0.76,5.72,> 2000,9.14,8.09,1.25,9.54,98.9,8.07,–,–
"COc1ccccc1N1CCN(CCCCOc2ccc3c4c(c(=O)oc3c2)CCCC4)CC1 [Compound 19, 3-{4-[4-(2-methoxyphenyl)piperazin-1-yl]-butoxy}-7,8,9,10-tetrahydrobenzo[c]benzopyran-6-one]",0.15,–,4.90 ± 1.10,1.50 ± 1.20,0.40 ± 0.97,5.95,> 2000,8.38,8.44,2.35,8.74,156,7.88,–,"Scoring (value), apomorphine induced clambering (KM mice [1]; dosage 0.52 mg/kg): 0.75 ± 1.04"
CN1CCN(C2=Nc3cc(Cl)ccc3Nc3ccccc32)CC1 [clozapine],–,–,–,–,–,–,150,–,–,–,–,–,–,5.50 ± 0.76,"Scoring (value), apomorphine induced clambering (KM mice [1]; dosage 17.4 mg/kg): 4.60 ± 2.07; Scoring (value), apomorphine induced clambering (KM mice [1]; dosage 23 mg/kg): 3.70 ± 2.21; Scoring (value), apomorphine induced clambering (KM mice [1]; dosage 30 mg/kg): 0.60 ± 1.07; apomorphine induced clambering ED50 (KM mice [1]; po, mice): 17.92 mg/kg; LD50 (KM mice [3]): 150 mg/kg; MK-801 induced high activity ED50 (mice of Kunming breed): 2.28 mg/kg; ED50 (Catalepsy assay): > 50 mg/kg"
O=C(CCCN1CCC(O)(c2ccc(Cl)cc2)CC1)c1ccc(F)cc1 [haloperidol],0.1,4.50 ± 1.78,0.70 ± 0.82,0.60 ± 1.58,–,–,20,–,–,–,–,–,–,–,"Scoring (value), apomorphine induced clambering (KM mice [1]; dosage 0.13 mg/kg): 1.50 ± 1.27; Scoring (value), apomorphine induced clambering (KM mice [1]; dosage 0.174 mg/kg): 2.20 ± 1.69; Scoring (value), apomorphine induced clambering (KM mice [1]; dosage 0.23 mg/kg): 0.80 ± 0.79; LD50 (KM mice [3]): 20 mg/kg; MK-801 induced high activity ED50 (mice of Kunming breed): 7.42 mg/kg; ED50 (Catalepsy assay): 0.44 mg/kg"

# Reference: patent US9018213B2, “Alicyclic[c] benzopyrone derivatives and uses thereof” (Huazhong University of Science & Technology, priority 2011, dated 2015)
